Test: Human HepG2 cell viability assay in 384 well format
Assay type: toxicity, cell-based
Parameters: dose 125 nL, time 70.5 hour; cytotoxicity at 70.5 h: concentration not given beside the values
Conditions: HepG2 cells, read-out: Inhibition

Row | SMILES | cytotoxicity at 70.5 h
1 | CCOCC(O)CN1CCN(C(=O)c2ccc3c(c2)COC3)CC1 (configuration not stated) | -8.02%
2 | Cc1cccc(C)c1OCCNC(=O)C(C)n1cncn1 (configuration not stated) | -11.4%
3 | O=C(Nc1cccnc1)C1=NN(c2ccccc2)C(=O)CN1 | 6.02%
4 | Cc1noc(CN2CCN(C(=O)N(C)C)CC2)n1 | -11%
5 | CC(C(=O)NCCOc1ccc2c(c1)CCC2)n1cncn1 (configuration not stated) | 7.17%
6 | CC1CN(Cc2noc(C3CC3)n2)CCN1Cc1noc(C2CC2)n1 (configuration not stated) | -13.7%
7 | Cc1ccc(C(=O)N2CCN(CC(C)O)CC2)cc1S(C)(=O)=O (configuration not stated) | -6.11%
8 | CCc1nnc2n1CCN(C(=O)Cc1nc(-c3ccco3)oc1C)C2 | 10.8%
9 | COC(=O)CN1CCCN(C(=O)CCOc2cccc(C)c2C)CC1 | -5.13%
10 | COc1c(C2CCCN2Cc2cccc(C(N)=O)c2)c(C)nn1C (configuration not stated) | -2.05%
11 | Cc1nn(C)c(Cl)c1C1CCCN1Cc1ccc(C(N)=O)cc1 (configuration not stated) | -7.15%
12 | CCc1nnc2n1CCN(C(=O)c1ccc(-c3ccco3)[nH]c1=O)C2 | -6.59%
13 | Cc1cccc(OCCC(=O)N2CCN(CC(=O)NC3CC3)CC2)c1C | -11.9%
14 | CCc1noc(CN2CCCN(C(C)=O)CC2)n1 | -6.42%
15 | CCc1noc(CN2CCN(C(=O)C3CC3)CC2)n1 | -9.23%
16 | CC(C)(O)CN1CCN(C(=O)c2ccc3c(c2)COC3)CC1 | -5.78%
17 | COCCCNC(=O)CN1CCC(N2CCN(C)C2=O)CC1 | -10.4%
18 | CCOCc1cc(CNC2CCCc3c2cnn3CC)ccc1OC (configuration not stated) | -1.88%
19 | CCc1nnsc1C(=O)N1CCCC1c1c(C)nn(C)c1OC (configuration not stated) | 13.9%
20 | Cc1ccccc1CN(C)C(=O)CN1CCOC(Cn2cncn2)C1 (configuration not stated) | 1.73%
21 | COc1c(C)cnc(CN2CCOC(Cn3cncn3)C2)c1C (configuration not stated) | -3.24%
22 | CC1CN(Cc2ccc(-n3cccn3)cc2)CCO1 (configuration not stated) | 0.696%
23 | CS(=O)(=O)NCCCN1CCCC1c1cccc(Br)c1 (configuration not stated) | -9.99%
24 | CCn1cc(CN2CCCN(C(=O)c3sc(C)nc3C)CC2)cn1 | 4.77%

Row | SMILES | cytotoxicity at 70.5 h
25 | CCn1cc(CN2CCCN(C(=O)c3ccc(C#N)cc3)CC2)cn1 | -4.62%
26 | Cc1cnc(CN2CCCC2c2cnn(C)c2)cn1 (configuration not stated) | -10.3%
27 | CC(=O)c1cccc(S(=O)(=O)NCc2cccnc2N(C)C)c1 | -6.06%
28 | COc1ccc(NC(=O)N(C)Cc2ccsc2)cn1 | -3.11%
29 | N#CC1(NC(=O)CN2CCC(c3ccnn3CCO)CC2)CCCC1 | -11.9%
30 | O=C(CN1CCC(c2ccnn2CCO)CC1)NC1CCCC1 | -3.63%
31 | CCOc1cc(C)nc(N2CCN(C(=O)c3cn[nH]c3CC)CC2)n1 | -3.76%
32 | O=C(CN1CCCC1Cn1cncn1)NCCC1=CCCCC1 (configuration not stated) | 1.2%
33 | Cn1cc(C2CCCN2Cc2csc(Cc3ccccc3)n2)cn1 (configuration not stated) | -8.68%
34 | Cc1ccccc1-c1cc(C(=O)N2CCCC(n3ccnc3C)C2)[nH]n1 (configuration not stated) | 13.3%
35 | CC(C)c1noc(C(C)N2CCN(Cc3ccco3)CC2)n1 (configuration not stated) | -9.38%
36 | Cc1ncc2c(n1)CN(CC(=O)Nc1nncs1)CC2 | -6.76%
37 | CN(C)C(=O)CS(=O)(=O)Cc1cc(Cl)c2c(c1)OCO2 | -2.34%
38 | Cc1nc(CN(Cc2cccs2)C2CCS(=O)(=O)C2)oc1C (configuration not stated) | -16%
39 | CCc1nnc2n1CCN(C(=O)CN(C)Cc1ccccc1)C2 | -4.4%
40 | CCNc1cc2c(nn1)CCN(C(=O)Cc1noc3ccccc13)C2 | -12.5%
41 | CN(CC(=O)NC1(C#N)CCCC1)C1CCCN(c2cccnn2)C1 (configuration not stated) | -1.63%
42 | CCc1ccc(S(=O)(=O)Nc2cc(C(=O)O)c(F)cc2F)s1 | 26.3%
43 | Cc1nc(C2CCCN(C(=O)c3ccc(OCC4CC4)cc3)C2)no1 (configuration not stated) | 31%
44 | Cc1cn2c(n1)CCC(NC(=O)CCn1cncn1)C2 (configuration not stated) | -8.43%
45 | CN(C)CC1CN(Cc2csc(C3CCCC3)n2)CCO1 (configuration not stated) | -12.3%
46 | COCCN1CCC(CNC(=O)c2cc(C)cc(C)c2)C1 (configuration not stated) | -11.9%
47 | CCc1nc2n(n1)CC(NCc1noc(-c3ccccc3)n1)CC2 (configuration not stated) | 12.2%
